Measured values as given in US9670214B2, “Small molecule myristate inhibitors of Bcr-abl and methods of use” (DANA-FARBER CANCER INSTITUTE, INC., priority 2007, dated 2017).

Experiments:
[1] = tested on: Ba/F3 cells (IL-3 dependent murine pro-B cell line); experiment: Proliferation assay (MTT), parental Ba/F3 cells; format: cell-based; conditions: Mus musculus, 48 h, drug concentrations 0.005-10 μM, read-out: BaF3
Procedure, shortened: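 Parental Ba/F3 cells grown with 10 U/ml murine IL-3 in RPMI/10% FBS, plated at 0.3-0.6×10^6/ml with compound at 0.005-10 μM for 48 h, 37 °C. Viability by MTT reduction; IC50 from percent growth relative to DMSO controls.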

[2] = molecular target: Bcr-abl T315I (Ba/F3.p210^T315I cells) (Homo sapiens, UniProt P00519, T315I, cells depend on it); experiment: Proliferation assay (MTT), T315I mutant Bcr-abl expressing Ba/F3 cells; format: cell-based, murine; conditions: 48 h, drug concentrations 0.005-10 μM
Source text: (§1) Wild type Bcr-abl expressing 32D (32D.p210) and Ba/F3 (Ba/F3.p210) cells, and mutant Bcr-abl expressing cell lines Ba/F3.p210^G250E, Ba/F3.p210^E255V, Ba/F3.p210^T315I, Ba/F3.p210^F317L and Ba/F3.p210^M351T, as well as Ba/F3 cells transformed with Flt-3-ITD kinase. Additional assays included Ba/F3 cells expressing the fusion protein kinases TEL-PDGFRβ, TEL-JAK1, NPM-ALK, TEL-cKit, Tel-Bmx, Tel-FGR3, Tel-Lck and Ba/F3.TPR-met cells. All the above cell lines were maintained in RPMI-1640 medium with L-Glutamine, 10% FBS and 1 mg/ml geneticin (Gibco).
(§2) Cells (0.3-0.6×10^6/ml) were plated in duplicate or triplicate in 96-well plates containing increasing drug concentrations (0.005-10 μM). After incubation at 37° C. in 5% CO2 for 48 h, the effect of the compounds on cell viability was determined by MTT (Promega) colorimetric dye reduction method. Inhibition of cell proliferation was calculated as a percentage of growth of DMSO treated cells, and IC50 values were determined with Microsoft Excel XLfit3.

[3] = molecular target: Bcr-abl (Ba/F3.p210 cells) (Homo sapiens, UniProt P00519); experiment: Proliferation assay (MTT), wild type Bcr-abl expressing Ba/F3 cells; format: cell-based, murine; conditions: 48 h, drug concentrations 0.005-10 μM
Source text: as §1, §2

Row | SMILES | IC50 [1] | IC50 [2] | IC50 [3]
1 | Cn1ccc2c(Nc3ccc(OC(F)(F)F)cc3)ncnc21 | > 10 µM | > 10 µM | 6.89 µM
2 | CCOC(=O)C1CCCN(C(=O)c2ccc3c(Nc4ccc(OC(F)(F)F)cc4)ncnc3c2)C1 (stereo not drawn) | 8.84 µM | > 10 µM | 5.55 µM
3 | CC(C)(C)S(=O)(=O)NC(=O)c1ccc2c(Nc3ccc(OC(F)(F)F)cc3)ncnc2c1 | > 10 µM | > 10 µM | > 10 µM
4 | Cn1c(C(=O)N2CCCC(C(N)=O)C2)cc2c(Nc3ccc(OC(F)(F)F)cc3)ncnc21 (stereo not drawn) | > 10 µM | > 10 µM | 1.98 µM
5 | FC(F)(F)Oc1ccc(Nc2ncnc3c2ccn3CCN2CCOCC2)cc1 | > 10 µM | 4.27 µM | 0.38 µM
6 | Cn1c(C(=O)NC(=N)N)cc2c(Nc3ccc(OC(F)(F)F)cc3)ncnc21 | > 10 µM | > 10 µM | > 10 µM
7 | O=C(NCCO)c1ccc2c(Nc3ccc(OC(F)(F)F)cc3)ncnc2c1 | > 10 µM | > 10 µM | 2.15 µM
8 | O=C(c1ccc2c(Nc3ccc(OC(F)(F)F)cc3)ncnc2c1)N1CCC(O)C1 (stereo not drawn) | > 10 µM | > 10 µM | 1.17 µM
9 | CCNC(=O)CCn1ccc2c(Nc3ccc(OC(F)(F)F)cc3)ncnc21 | > 10 µM | 9.29 µM | 2.42 µM
